Results: paper PMC8766184, “Molecular Docking, Synthesis, and Tyrosinase Inhibition Activity of Acetophenone Amide: Potential Inhibitor of Melanogenesis” (BioMed Research International, 2022)
Read-outs that look alike come from different tables or passages of the source.

How the values were obtained:
[1] = target: T1, mushroom tyrosinase (Agaricus bisporus, UniProt C7FF04); test: Mushroom tyrosinase inhibitory kinetics (Lineweaver-Burk and Dixon plots); type: biochemical
T1 construct: purchased Sigma Aldrich
T1 sequence (C7FF04 1-392): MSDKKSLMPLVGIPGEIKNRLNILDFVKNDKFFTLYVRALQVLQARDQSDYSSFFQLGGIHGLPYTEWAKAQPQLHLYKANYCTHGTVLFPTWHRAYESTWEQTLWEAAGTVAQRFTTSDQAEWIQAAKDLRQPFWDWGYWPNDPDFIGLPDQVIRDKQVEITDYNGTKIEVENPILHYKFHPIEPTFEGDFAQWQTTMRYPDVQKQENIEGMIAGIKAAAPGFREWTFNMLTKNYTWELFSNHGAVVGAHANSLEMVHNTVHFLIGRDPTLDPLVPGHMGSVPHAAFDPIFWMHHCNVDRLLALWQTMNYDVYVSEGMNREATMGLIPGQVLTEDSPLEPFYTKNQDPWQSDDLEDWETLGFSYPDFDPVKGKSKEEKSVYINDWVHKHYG
Description: Various concentrations of the inhibitor 5c were among 0.00 to 0.013 μM and that of L-DOPA was 0.00 to 0.0064 μM during all kinetic assays. For preincubation and calculations, the same protocol was followed as described in in vitro tyrosinase inhibition assay and continuous monitoring at 30 s interval for 5 minutes after adding the enzyme tyrosinase, and the formation of dopachrome was measured at 475 nm. The enzyme inhibitory action and the kind of inhibition were determined by the Lineweaver-Burk and Dixon plots. 1/V (inverse of velocities) versus 1/[S] (inverse of substrate concentration) mM^−1 were plotted to determine inhibition constant Ki.
The enzyme inhibitory interaction mechanism of 3(a–e) and 5(a–e) with the binding site of mushroom tyrosinase was determined using Michaelis-Menten kinetic studies. […] A striking reduction in the reaction rate in the presence of inhibitors refers to a decrease in the final absorbance in comparison to control without inhibitors. The inhibitory index of all these tested compounds varied depending upon the position of various substituents and classes of compounds [27]. Inhibition kinetics was analyzed by the Lineweaver-Burk and Dixon plots.

[2] = target: T1, mushroom tyrosinase; test: In vitro mushroom tyrosinase inhibition assay (L-DOPA substrate, dopachrome absorbance); type: biochemical
Description: In vitro antityrosinase potential was determined following the method previously described with little modifications [33, 34]. Briefly, 140 μL of sodium phosphate buffer, 20 μL (30 U/mL) of the enzyme mushroom tyrosinase, and 20 μL of the tested compound were added in a well of a 96-well microplate. After a preincubation of 10 minutes at room temperature of 20 μL (0.85 mM), the substrate L-DOPA was added followed by an incubation of 20 minutes at the same temperature. Subsequently, the absorbance of the intermediate dopachrome was recorded by using an Opti Max tunable microplate reader (Sunnyvale, USA) at 472 nm. […] The negative inhibitor was a phosphate buffer without an inhibitor.

Structure (SMILES)	IC50 [2]	further results
CC(=O)c1cccc(NC(=O)COC(=O)/C=C/c2ccc(O)cc2O)c1 [Compound 5c, 2-(3-acetylphenylamino)-2-oxoethyl(E)-3-(2,4-dihydroxyphenyl)acrylate]	–	Ki ([1]; Dixon plot, L-DOPA substrate, read-out: dissociation constant (Ki)): 0.0072 µM; type of inhibition ([1]; Lineweaver-Burk plot, L-DOPA substrate): competitive; reversibility of inhibition ([1]; remaining enzyme activity vs enzyme concentration at various inhibitor doses, L-DOPA): reversible; IC50 ([2]; L-DOPA 0.85 mM substrate, enzyme 30 U/mL, absorbance at 472 nm, read-out: Mushroom tyrosinase inhibition IC50 ± SEM): 0.002 ± 0.0002 µM
CC(=O)c1cccc(NC(=O)COC(=O)c2cccc(O)c2)c1 [Compound 3a, 2-(3-acetylphenylamino)-2-oxoethyl-3-hydroxybenzoate]	323 ± 16.9 µM	–
CC(=O)c1cccc(NC(=O)COC(=O)C=Cc2ccccc2)c1 [Compound 5a, 2-(3-acetylphenylamino)-2-oxoethylcinnamate]	46.4 ± 5.8 µM	melting point: 159 to 161 °C
CC(=O)c1cccc(NC(=O)COC(=O)c2cc(O)cc(O)c2)c1 [Compound 3e, 2-(3-acetylphenylamino)-2-oxoethyl 3,5-dihydroxybenzoate]	255 ± 14.2 µM	–
CC(=O)c1cccc(NC(=O)COC(=O)c2ccc(O)cc2O)c1 [Compound 3c, 2-(3-acetylphenylamino)-2-oxoethyl 2,4-dihydroxybenzoate]	27.4 ± 3.6 µM	–
CC(=O)c1cccc(NC(=O)COC(=O)/C=C/c2ccc(Cl)cc2)c1 [Compound 5d, 2-(3-acetylphenylamino)-2-oxoethyl(E)-3-(4-chlorophenyl)acrylate]	61.6 ± 11.4 µM	–
CC(=O)c1cccc(NC(=O)COC(=O)c2ccc(O)c(O)c2)c1 [Compound 3d, 2-(3-acetylphenylamino)-2-oxoethyl 3,4-dihydroxybenzoate]	128 ± 8.5 µM	–
CC(=O)c1cccc(NC(=O)COC(=O)/C=C/c2ccc(O)cc2)c1 [Compound 5b, 2-(3-acetylphenylamino)-2-oxoethyl(E)-3-(4-hydroxyphenyl) acrylate]	309 ± 36.8 µM	–
CC(=O)c1cccc(NC(=O)COC(=O)c2ccc(O)cc2)c1 [Compound 3b, 2-(3-acetylphenylamino)-2-oxoethyl-4-hydroxybenzoate]	288 ± 32.2 µM	–
